Earlier results in patent US9289495B2, “Systems and methods for treatment of allergies and other indications” (Strategic Science & Technologies, LLC, priority 2011, dated 2016).

- pKa: 8.7-9.2
SMILES: CN(C)CCOC(C)(c1ccccc1)c1ccccn1 (stereo not shown) [doxylamine]
